# Tests used:
# NIH3T3 HRAS/G12V cells = assay: Cell growth curves, transformed NIH3T3; type: cell-based; details: up to 100.0 nM
# Experimental: Nthy-ory-3-1 (10000 per well), TPC-1 (10000 per well), MZ-CRC-1 (100000 per well), TT (200000 per well), Lc-2/ad (100000 per well), BCPAP (10000 per well), 8505-C (10000 per well), PC-9 (10000 per well), A549 (10000 per well), CALU-1 (10000 per well), NIH3T3 RET/C634Y (10000 per well), and NIH3T3 HRAS/G12V (10000 per well) were seeded in six-well tissue culture plates. Cells were kept in 2% (TPC-1), 5% (Nthy-ori-3-1), or 10% (BCPAP, 8505-C, CALU-1, A549, PC-9, TT, MZ-CRC-1, and Lc-2/ad) fetal calf serum or in 2% (NIH3T3 RET/C634Y and HRAS/G12V) calf serum. Ba/F3 cells (200000 per well in 2 mL) were seeded in six-well tissue culture plates and kept in 10% fetal calf serum. The day after plating, different concentrations of the drug or vehicle were added to the medium and changed every 2–3 days. Cells were counted every day (Ba/F3), every 2 days (fibroblasts), or every 2–3 days (human cell lines). […] IC50 doses were calculated through a curve fitting analysis from last day of growth curves using the PRISM software program (Graphpad Software Inc.).
# Supplementary Figure S9: NPA101.3-mediated inhibition of proliferation of RET-transformed NIH3T3 cells […] Serum-starved NIH3T3 cells exogenously expressing the RET/C634Y or HRAS/G12V oncogenes were incubated with vehicle (NT: not treated) or the indicated concentrations of the compound and counted at the indicated time points. […]
# [1] = LCMS plasma analysis (in vivo metabolism study); parameters: species or system mouse; details: 10 mg/kg oral, mice, 1 h and 4 h after dosing, LC-MS
# Experimental: In vivo target (RET and VEGFR2) inhibition was studied by treating animals grafted with NIH3T3 RET/C634Y cells at different doses (0.3, 1, or 3 mg/kg/day p.o.) of NPA101.3 for 2 days and then performing Western blot analysis on protein extracts. […] Then, to determine antitumorigenic activity and to better distinguish RET- and VEGFR2-mediated effects, we tested NPA101.3 in nude mice transplanted with NIH3T3 cells transformed by either RET/C634Y or HRAS/G12V. Before tumors appeared, animals were treated daily with NPA101.3 (1.0, 3.0, or 10.0 mg/kg/day) or left untreated. […] Still, VEGFR2 inhibition was detected also in RAS-driven tumors, an effect that might explain the, albeit reduced, effect of the drug on their growth (Figure S13). Importantly, as predicted, no trace of NPA101.3 demethyl metabolites was detected after 1 or 4 h from oral dosing in mice (Figure S14). […]
# After thawing, cells were maintained in culture using minimum essential medium supplemented with 10% foetal bovine serum, 1% non-essential amino acids, 1% sodium pyruvate, 2mM L-glutamine, 1% pen-strep, 15μg/ml blasticidin and 100 μg/ml hygromycin. hERG channel expression induction was obtained by adding 10 μg/ml tetracycline 48 h before the experiment. […] Current amplitude was measured and […]
# Supplementary Figure S14: In vivo metabolism study. […] NPA101.3 drug peak was detected at 3.61 min (m/z = 529) at either time point. […]
# [2] = tested on: cells negative for RET oncogenes; assay: Growth inhibition, cells negative for RET oncogenes (summary); type: cell-based; details: doses of ≤100 nM
# Experimental: Finally, NPA101.3 featured efficacy already at 1 mg/kg/day in RET-driven tumors in nude mice. […] Therefore, though in a therapeutic setting toxicity may be increased by hitting multiple targets, it is feasible that the activity of the NPA101.3 against RET-driven tumors may take advantage of a synergistic combination of cell autonomous (on tumor cell growth mediated by RET inhibition) and non-cell autonomous (on blood vessel formation mediated by VEGFR2 inhibition) effects, potentiating its effect and reducing the chances of resistance development. Several TKIs with anti-RET activity are available, and some are already registered for the treatment of different types of thyroid cancers. […]
# Nthy-ory-3-1 (10000 per well), TPC-1 (10000 per well), MZ-CRC-1 (100000 per well), TT (200000 per well), Lc-2/ad (100000 per well), BCPAP (10000 per well), 8505-C (10000 per well), PC-9 (10000 per well), A549 (10000 per well), CALU-1 (10000 per well), NIH3T3 RET/C634Y (10000 per well), and NIH3T3 HRAS/G12V (10000 per well) were seeded in six-well tissue culture plates. […] Cells were counted every day (Ba/F3), every 2 days (fibroblasts), or every 2–3 days (human cell lines). […] IC50 doses were calculated through a curve fitting analysis from last day of growth curves using the PRISM software program (Graphpad Software Inc.).
smiles,measurement,setting,value
CC(C)(C)c1cc(NC(=O)Cc2ccc(-n3cnc4cc(-c5ccc(S(C)(=O)=O)cc5)ccc43)cc2)no1 [NPA101.3],effect on proliferation of NIH3T3 HRAS/G12V cells,NIH3T3 HRAS/G12V cells,virtually no effect
same,demethyl metabolites in plasma,[1],no trace
same,growth effect in cells negative for RET oncogenes,[2],no detectable effect

# Reference: article PMC7901654, “Bioisosteric Discovery of NPA101.3, a Second-Generation RET/VEGFR2 Inhibitor Optimized for Single-Agent Polypharmacology” (Journal of Medicinal Chemistry, 2020)
